These results are taken from US12590103B2, “Polymorph of EP4 receptor antagonist, preparation method therefor and use thereof” (SHANGHAI YUYAO BIOTECH LTD., priority 2020, dated 2026).

Common to all, as to format: physicochemical
Series [1] can be described thus: Volatilization at room temperature, sample checked by 1H NMR. Conditions: volatilized at room temperature in THF, MeOH-THF and THF-water. The procedure: The structure of the solid sample and the solvent contained in the sample were confirmed by ^1H NMR. The instrument used for ^1H NMR analysis is Bruker Advance 300 equipped with B-ACS 120 automatic sampling system.
Single solvent volatilization: an appropriate amount of initial raw materials of compound I was dissolved in the solvents shown in 1-6 in Table 8 to prepare a solution with a concentration of 8 to 20 mg/mL. The obtained solution was filtered, the filtrate was volatilized at room temperature, and the obtained solid was characterized by XRPD.
Binary solvent volatilization: an appropriate amount of initial raw materials of compound I was dissolved in the solvents shown in 7-25 of Table 8 to prepare a solution with a concentration of 10 mg/mL. After filtration, the resulting filtrate was then mixed with solvent −2; then volatilized at room temperature. A total of 19 solvent systems were used to carry out the volatilization experiment of binary solvent, and the obtained solid was characterized by XRPD.

A short description of series [2]: DSC heat treatment (heating-cooling-heating cycle) with XRPD. Conditions: RT to 260° C., to −30° C., to 300° C. Here is the method:
The DSC heating-cooling-heating cycle was used to try to find a crystal form with a higher melting point.
During the cooling process, there is an obvious exothermic peak. The initial temperature of the exothermic peak is 206.8° C., which should be caused by crystal transformation. XRPD characterization was performed on three different positions during DSC treatment.

Series [3] can be described thus: Suspension crystal transformation experiment of Polymorphic Form I and Polymorphic Form II. Conditions: concluded from suspension crystal transformation at RT and 50° C. The procedure:
Suspension crystal transformation experiments were carried out on Polymorph I and polymorph II at room temperature and 50° C. respectively (Table 13). The resulting solid was characterized by XRPD.

Series [4] in a line: Dynamic water vapor adsorption (DVS). The procedure:
The instrument model used for dynamic moisture absorption and desorption analysis is IGA Sorp(Hidentity Isochema). The sample measurement adopts gradient mode, the relative humidity range of the test is 0% to 90%, and the humidity increment of each gradient is 10%. The specific parameters are as follows: • Sample temperature: 25° C. • Temperature stability: 0.1° C./min • Flow rate: 250 mL/min • Scan: 2 • Model: F1 • Minimum time: 30 min • Maximum time: 120 min • Waiting cap: 98% • Start: Adsorption Scan • Adsorption humidity (%):0, 10, 20, 30, 40, 50, 60, 70, 80, 90; • Desorption humidity (%):80, 70, 60, 50, 40, 30, 20, 10, 0.
The initial raw material of Compound I was slurried in acetone for 4 hours, filtered and the resulting solid was characterized by XRPD, PLM, TGA, DSC and DVS.

Series [5] is described as follows: Stability determination at 25° C./92.5% RH (XRPD). The note with it: 25° C./92.5% RH for 9 days. Here is the method:
(§1) The solid samples obtained from the experiment were analyzed by D8 advance powder X-ray diffraction analyzer (Bruker). The instrument is equipped with a LynxEye detector, and the ray species is Cu Kα (λ=1.54184 Å). The 2θ scanning range of the sample is from 3° to 40°, and the scanning step is 0.02°. When measuring the sample, the light tube voltage and light tube current were 40 KV and 40 mA respectively.

Series [6] in a line: XRPD characterization after heating (thermal crystal transformation). Here is the method:
as §1

Consider `C[C@H](NC(=O)c1c(Cc2ccc(F)cc2)sc2c1CCOC2)c1ccc(C(=O)O)cc1` [compound I, (S)-4-(1-(2-(4-fluorobenzyl)-4,7-dihydro-5H-thieno [2,3-c]pyran-3-carboxamido)ethyl) benzoic acid], for which the “chemical stability of the sample (1H NMR)” value in series [1] was “degraded”.
As to `C[C@H](NC(=O)c1c(Cc2ccc(F)cc2)sc2c1CCOC2)c1ccc(C(=O)O)cc1` [polymorphic Form I, (S)-4-(1-(2-(4-fluorobenzyl)-4,7-dihydro-5H-thieno [2,3-c]pyran-3-carboxamido)ethyl) benzoic acid], the “crystal form by XRPD at positions 1, 2 and 3 of the DSC treatment” value in series [2] is listed as “all polymorphic Form I”. Moreover, the “thermodynamic stability of the crystal form” value in series [3] is recorded as “thermodynamically stable crystal form”. In addition, the “polymorph of the sample before and after moisture absorption” value in series [4] (DVS 0% to 90% RH) is recorded as “does not change”. For the same compound, the “moisture absorbed (DVS)” value in series [4] (at 80% RH, 25° C.) is < 2%. Further, the “crystal form by XRPD after storage in high humidity” value in series [5] is reported as “remain unchanged”.
With `C[C@H](NC(=O)c1c(Cc2ccc(F)cc2)sc2c1CCOC2)c1ccc(C(=O)O)cc1` [polymorphic Form II, (S)-4-(1-(2-(4-fluorobenzyl)-4,7-dihydro-5H-thieno [2,3-c]pyran-3-carboxamido)ethyl) benzoic acid], the “crystal form by XRPD after heating” value in series [6] (heated to 200° C.) was “transformed into polymorphic Form I”.
Consider `C[C@H](NC(=O)c1c(Cc2ccc(F)cc2)sc2c1CCOC2)c1ccc(C(=O)O)cc1` [polymorphic Form III, (S)-4-(1-(2-(4-fluorobenzyl)-4,7-dihydro-5H-thieno [2,3-c]pyran-3-carboxamido)ethyl) benzoic acid], for which, in series [6] (heated to 240° C.), the “crystal form by XRPD after heating” value is “transformed into polymorphic Form I”.
Take `C[C@H](NC(=O)c1c(Cc2ccc(F)cc2)sc2c1CCOC2)c1ccc(C(=O)O)cc1` [polymorphic Form IV, (S)-4-(1-(2-(4-fluorobenzyl)-4,7-dihydro-5H-thieno [2,3-c]pyran-3-carboxamido)ethyl) benzoic acid]: the “crystal form by XRPD after heating” value in series [6] (heated to 200° C.) is recorded as “transformed into polymorphic Form I”.
For the compound `C[C@H](NC(=O)c1c(Cc2ccc(F)cc2)sc2c1CCOC2)c1ccc(C(=O)O)cc1` [polymorphic Form V, (S)-4-(1-(2-(4-fluorobenzyl)-4,7-dihydro-5H-thieno [2,3-c]pyran-3-carboxamido)ethyl) benzoic acid], the “crystal form by XRPD after heating” value in series [6] (heated to 200° C.) is listed as “converted into the polymorphic Form I”.
For `C[C@H](NC(=O)c1c(Cc2ccc(F)cc2)sc2c1CCOC2)c1ccc(C(=O)O)cc1` [polymorphic Form VI, (S)-4-(1-(2-(4-fluorobenzyl)-4,7-dihydro-5H-thieno [2,3-c]pyran-3-carboxamido)ethyl) benzoic acid], in series [6] (heated to about 236° C.), the “crystal form by XRPD after heating” value was “transformed into polymorphic Form I”.
